Reference: PubChem BioAssay AID1996
≈ marks a conversion by molar mass, not a printed value.

conditions: buffer; pH 7.4; 200.0 µM

| Structure (SMILES) | solubility kinetic [µg/mL] |
| --- | --- |
| CC(C)NC(=O)c1cc(-c2ccc3c(c2)OCO3)on1 | 17.9 (≈ 65.3 µM) |
| CCOC(=O)C(=O)N(CC)C1CCS(=O)(=O)C1 (stereo not given) | > 39.5 |
| O=S1(=O)CCN(Cc2ccc(F)cc2)CC1 | > 36.5 |
| O=C(Nc1cccnc1)NC1CCCCC1 | > 32.9 |
| O=C1/C(=C\c2ccc(Cl)cc2Cl)N2CCC1CC2 | 8.9 (≈ 31.5 µM) |
| CCCN1CCN(CCNC(=O)Nc2ccccc2Cl)CC1 | > 48.7 |
| CC(C)Sc1nc2c(c(=O)[nH]c(=O)n2C)n1Cc1ccccc1 | 2.8 (≈ 8.47 µM) |
| COc1ccc(/C=C/C(=O)N2CCN(C)CC2)cc1OC | > 43.6 |
| COc1ccc(CN(C)CC(=O)NC(=O)NC2CCCCC2)cc1 | > 50 |
| C=C1SC(Nc2c(C)cccc2C)=NC12CCCCC2 | < 0.3 |
| COc1ccc(CNC(=O)N[C@@H](CC(C)C)C(=O)O)cc1OC | > 48.7 |
| CCN1CCN(C(=O)c2cc3cc(Cl)ccc3[nH]2)CC1 | > 43.8 |
| O=C(CN1C(=O)C(=O)N(CCC2=CCCCC2)C1=O)c1c[nH]c2ccccc12 | 3.2 (≈ 8.43 µM) |
| COc1ccc(OC)c(N(CC(=O)N2CCCC2)S(C)(=O)=O)c1 | > 51.4 |
| CN1CCN(c2ccccc2NC(=O)c2cccs2)CC1 | > 45.2 |
| CC1CN(S(=O)(=O)c2ccccc2)CN1C(=O)N1CCOCC1 (stereo not given) | > 50.9 |

| Structure (SMILES) | solubility kinetic [µg/mL] |
| --- | --- |
| CCCc1nnc(SCC(=O)Nc2nccs2)o1 | > 42.7 |
| CC1CCCN(S(=O)(=O)c2ccc3oc(=O)ccc3c2)C1 (stereo not given) | 20 (≈ 65.1 µM) |
| CC(C)CN(C(=O)C1CCCCC1)C1CCS(=O)(=O)C1 (stereo not given) | > 45.2 |
| CC1CCc2sc(C(=O)NCCCn3ccnc3)cc2C1 (stereo not given) | 35 (≈ 115 µM) |
| COc1cc([N+](=O)[O-])ccc1N1C(=O)CC(Sc2nccc(C)n2)C1=O (stereo not given) | > 56.2 |
| O=C(c1ccc([N+](=O)[O-])cc1)N1CCCC1 | > 33 |
| O=C(CNC(=O)c1ccc(Br)o1)NC12CC3CC(CC(C3)C1)C2 | 50.5 (≈ 132 µM) |
| CCc1cc(=O)oc2c(C)c(OC(C)C(=O)N3CCC[C@@H]3C(=O)O)ccc12 (stereo not given in full) | > 56 |
| CS(=O)(=O)Nc1ccc(-c2cn3c(n2)SCC3)cc1 | 43.6 (≈ 148 µM) |
| CC(Cc1cccs1)NCc1ccc(Cl)cc1 (stereo not given) | 22.6 (≈ 85 µM) |
| COCCNC(=O)c1cc2cc(Cl)cc(Cl)c2oc1=O | 9.2 (≈ 29.1 µM) |
| CCOCCCNC(=O)c1ccc(NC(=O)C2CCCO2)cc1 (stereo not given) | > 48.1 |
| CC1(C)CC(NC(=O)c2ccccc2F)CC(C)(C)N1 | > 41.8 |
| CCc1ccc(NC(=O)CCCN2C(=S)NC(C)(C)CC2C)cc1 (stereo not given) | 38.7 (≈ 111 µM) |
| Cc1ccc(C)c(N2CCN(C(=O)C3CCC3)CC2)c1 | > 40.9 |
| CC(C)[C@H](N[C@@H](C)c1ccccc1)c1c(O)ccc2ccccc12 | 2.2 (≈ 6.89 µM) |

Further lines, results first:

| solubility kinetic [µg/mL] | Structure (SMILES) |
| --- | --- |
| 28 (≈ 110 µM) | C=CCOc1cccc(CNCc2ccncc2)c1 |
| 10 (≈ 24.6 µM) | COc1ccc(-c2cc(C(=O)OCC(=O)NC3CC3)c3ccccc3n2)cc1OC |
| 3.2 (≈ 9.8 µM) | CC(C)c1ccc(NC(=O)CSc2nc3ncccc3[nH]2)cc1 |
| 1.7 (≈ 5.16 µM) | CCOc1ccc(S(=O)(=O)c2c[nH]c3ccccc3c2=O)cc1 |
| > 45.1 | Cc1ccc(S(=O)(=O)CCc2nc3ccccc3[nH]2)cc1 |
| 11.9 (≈ 39.6 µM) | CSc1ncccc1C(=O)NC(C)CCc1ccccc1 (stereo not given) |
| 38.4 (≈ 129 µM) | Cc1cc(Oc2ccc(Cl)cc2)nc(-c2ccccn2)n1 |
| > 46 | O=C(NNC(=S)NC(=O)c1cccs1)c1cccnc1 |
| 45.4 (≈ 139 µM) | COc1ccc(OCCCCn2c(CO)nc3ccccc32)cc1 |
| > 51.2 | O=C(CN1CCN(Cc2ccc(F)cc2)CC1)NCc1ccccc1 |
| > 46.6 | Cc1ccc(-c2sc(-c3cccnc3)nc2CC(=O)O)cc1 |
| > 55 | COc1ccc(NC(=O)CN(C)C(=O)C2(c3ccccc3)CCCC2)cc1 |
| 12 (≈ 32.7 µM) | COc1ccc(CN(C)C(=O)c2sccc2-c2ccccc2)c(OC)c1 |
| 11.9 (≈ 38.5 µM) | Cc1cnc(C(=O)NCCc2ccc(C(F)(F)F)cc2)cn1 |
| > 50.2 | O=C(Nc1ccccn1)c1ccc2c(=O)n3c(nc2c1)CCCCC3 |
| < 0.4 | COc1ccc2[nH]c(C(=O)N3CCC(Cc4ccccc4)CC3)cc2c1 |
| 39.6 (≈ 127 µM) | O=C(NCCCn1ccnc1)c1cc(-c2cccc(O)c2)on1 |
| 43.1 (≈ 142 µM) | Cc1ccc(CNC(=O)CSCc2ccccc2F)cc1 |
| < 0.2 | Cc1cc(C)cc(NC(=O)Nc2ccc3ccccc3n2)c1 |
| > 74.1 | CCN(CC(=O)NCc1ccc(Cl)cc1)C(=O)c1cc(S(=O)(=O)N2CCOCC2)ccc1C |
| 3.2 (≈ 9.24 µM) | O=C(Nc1ccccc1C(=O)NCCc1ccccc1)c1cnccn1 |
| 36.8 (≈ 122 µM) | COc1cccc(C(=O)Nc2ccc3c(c2)OCO3)c1OC |
| > 40.1 | COc1ccc(CC(=O)Oc2ccc(C#N)cc2)cc1 |
| < 0.4 | CCC(=O)c1cn(CC(=O)Nc2cccc(OC)c2)c2ccccc12 |
| 10.3 (≈ 48.5 µM) | c1ccc2nc(-c3nccs3)ccc2c1 |
| 4.1 (≈ 13.2 µM) | COc1ccc(OC)c(CC(=O)Nc2ccc3c(c2)CCC3)c1 |
| 2.3 (≈ 5.6 µM) | COc1ccc(CCNC(=O)c2ccc(OCc3c(C)noc3C)c(OC)c2)cc1 |
| > 50.8 | Cc1[nH]n(-c2ccccc2)c(=O)c1/C=N/NC(=O)c1cccc(F)c1 |
